Consider three compounds from publication PMC6940354, “Comparative Assessment of the New PDE7 Inhibitor – GRMS-55 and Lisofylline in Animal Models of Immune-Related Disorders: A PK/PD Modeling Approach” (Pharmaceutical Research, 2020).

Assay [1] concerns ConA-induced hepatitis in BALB/c mice. Put plainly: ConA-induced hepatitis in mice. Format: in vivo, mouse. The note with it: IP 30 min before ConA 20 mg kg^−1 IV, 8 h after ConA, rolipram 10 mg kg^−1, GRMS-55 and (±)-LSF 50 mg kg^−1, vs control group. The procedure:
ConA was dissolved in an appropriate volume of saline for injections to obtain a concentration of 2 mg mL^−1. Each of the investigated compounds was dissolved in a vehicle composed of DMSO and PEG 400 mixed at a ratio of 1:9 (v/v). Thirty minutes before ConA administration, mice were injected intraperitoneally (IP) with the investigated compounds dissolved in the vehicle at a dose of 50 mg kg^−1 or with the corresponding volume of vehicle alone in the case of control group. ConA was administered by IV route at a dose of 20 mg kg^−1 and 8 h later mice were sacrificed. Blood samples were harvested from each individual and allowed to clot for 30 min at room temperature. Subsequently, serum was separated by centrifugation (3000 x g, 10 min), collected, and stored at −80°C until analysis.
TNF-α levels in LPS-stimulated rat blood in vitro and in rat plasma samples from the in vivo studies were analyzed by the Rat TNF-α Quantikine ELISA Immunoassay Kit (R&D Systems, USA) according to the manufacturer’s instructions. The assay was linear at the range of 12.5–800 pg mL^−1. Levels of TNF-α in mice serum were measured by ELISA Kits for Tumor Necrosis Factor Alpha (Cloud-Clone Corp., USA). This assay was linear at the range of 15.6–1000 pg mL^−1. Absorbance was measured at 450 nm using a POLARstar Omega multi-mode microplate reader (BMG LABTECH, Germany).
Serum […] (AST) and alanine transaminase (ALT) activity was analyzed using the chemistry analyzer BS-800 (Shenzhen Mindray Bio-medical Electronics Co. ltd, China).

Assay [2] relates to collagen-induced arthritis (CIA) in female Lewis rats. As to the kind of experiment: Collagen-induced arthritis in rats, paw swelling, PK/PD/DIS progression model. Format: in vivo, rat. The note with it: for decrease of relative paw swelling: at the last observation time point, once daily from day 20: rolipram 10 mg kg^−1 IP, GRMS-55 50 mg kg^−1 IP, (±)-LSF 80 mg kg^−1 SC. The method, then: The emulsion of collagen was prepared according to the Protocol for the Successful Induction of Collagen-Induced Arthritis (CIA) in Rats (Chondrex Inc., 2015). Porcine type II collagen dissolved in 0.05 M acetic acid was emulsified with incomplete Freund’s adiuvant (Sigma Aldrich, Germany) using an Omni TH Homogenizer (Omni International, Inc., USA) consisting of a blade with 5 mm diameter. The collagen solution was previously mixed with IFA at a low speed for 1 min and then at the highest speed for 2 min. Then emulsion was being cooled for 5 min in an ice water bath. The emulsification process was repeated 3 times to obtain a stiff emulsion. The emulsion was then transferred into a Hamilton glass syringe, kept at 4°C, and used within 2 h.
(§1) At a day 0 of the experiment animals were subcutaneously (SC) injected at the base of the tail with 200 μL of the emulsion using a 27 gauge × 5/8″ needle and Hamilton syringe. At day 7 after the initial immunization, a booster injection with 100 μL of emulsion was performed. Ninety % of rats developed symptoms of disease (paw swelling >150% of day 0) at day 20 of the experiment. At this day, diseased animals were randomly divided into five groups (n = 6). […] One investigated group received (±)-LSF dissolved in saline at an SC dose of 80 mg kg^−1 once daily. The corresponding control groups were administered with appropriate volumes of vehicles IP or SC. At day 40 animals were sacrificed. Hind paws of rats were taken and immersed into 4% buffered formalin solution for a subsequent histological analysis. Blood samples were collected and allowed to clot for 20 min and then centrifuged at 2000 x g for 15 min. Serum samples were collected and frozen at -80°C.
Paw edema of arthritic rats was assessed as swelling of the rat hind paws. Measurements of paws were performed using a digital caliper according to the procedure described by Earp et al. ([18]). Each hind leg was measured at two sections, i.e., paw and ankle, and each section was measured at two places (side-to-side and top-to-bottom). The area of each section (elliptical in shape) was calculated from the following equation:2 Area=π·a·b/4 where (a) is side-to-side diameter of the ellipse and (b) is top-to-bottom diameter of the ellipse. Paw and ankle section areas of each leg were subsequently added to obtain one overall measure for the rat hind paw (Areaoverall). Each of these measures was normalized to the same hind paw area measured at day 0 of the experiment (Areazero) to reduce variation in the disease progression resulting from differences in paw size of each rat. Relative paw swelling (Paw) was calculated according to the equation:3 Paw=Areaoverall/Areazero
Paw size was measured at days 0, 5, 7, 11, 15, 18, 20, 22, 26, 30, 33, and 36 after the first immunization. […]

The test system is the same in assay [3]. Put plainly: Body weight, clinical score and paw areas in CIA rats. The note with it: CIA rats vs control group; rolipram at all assessments post 20th day, (±)-LSF at 26, 33, and 36 day. Format: in vivo, rat. The procedure:
as §1
Body weight and paw size were measured, and clinical score was assessed at days 0, 5, 7, 11, 15, 18, 20, 22, 26, 30, 33, and 36 after the first immunization. Body weight of each rat was normalized to the body weight of the same rat at the day of the first immunization. Disease progression was evaluated by a qualitative clinical score (CS) as described elsewhere (1), where 0 – no symptoms of the disease, such as redness or swelling, 1 – mild, but definite redness and swelling, 2 – moderate redness and swelling, 3 – severe redness and swelling, and 4 – maximally inflamed limbs.

Setting [4] is: Rattus norvegicus, 480 h, read-out: IC50, concentration producing 50% of maximal inhibition (CIA progression), Final estimate (CV%).

SMILES strings stand for the structures. In brackets after ≈: the same amount, converted by molar mass.

As to `CC(O)CCCCn1c(=O)c2c(ncn2C)n(C)c1=O` (racemic) [(±)-LSF, lisofylline], in assay [1], the “TNF-α release in mice serum (result in words)” value (shortened to “TNF-α release in mice serum”) was “significantly reducing TNF-α levels” and the “activities of transaminases (ALT, AST) in mice sera (result in words)” value (“activities of transaminases (ALT, AST)” for short) is “failed to decrease the activities of transaminases”. Further, in assay [2], the “decrease of relative paw swelling” value came to 30.5%. Also, in assay [3], the “clinical score values (result in words)” value was “significantly lower”.
Regarding `Cn1c(=O)c2c(nc(NCCc3ccccc3)n2CCCC(=O)NN=Cc2ccccc2O)n(C)c1=O` [GRMS-55, 4-(1,3-Dimethyl-2,6-dioxo-8-(phenethylamino)-2,3,6,7-tetrahydro-1H-purin-7-yl)-N′-(2-hydroxybenzylidene)butanehydrazide], in assay [1], the “TNF-α release in mice serum” value is listed as “most potently inhibited TNF-α release” and the “activities of transaminases (ALT, AST)” value was “significantly reduced”. Besides, the IC50 at 50 mg/kg in assay [2] (setting [4]) is 0.26 µg/mL (≈ 0.516 µM). In addition, the “decrease of relative paw swelling” value in assay [2] was determined as 31.5%. Moreover, the “clinical score values (result in words)” value in assay [3] is listed as “did not decreased significantly”.
`COc1ccc(C2CNC(=O)C2)cc1OC1CCCC1` (stereo not shown) [Rolipram, rolipram]: in assay [1], the “TNF-α release in mice serum” value was “most potently inhibited TNF-α release” and the “activities of transaminases (ALT, AST)” value is reported as “significantly reduced”. Besides, the IC50 in assay [2] (setting [4]) is 0.01 µg/mL (≈ 0.0363 µM). In addition, the “clinical score values (result in words)” value in assay [3] is reported as “significantly lower”.
